{
  "source": "patent US20250353864A1",
  "about": "“INDAZOLE CONTAINING MACROCYCLES AND THEIR USE” (BLOSSOMHILL THERAPEUTICS, INC., priority 2022, published 2025)",
  "assay_type_in_all_cases": "biochemical",
  "settings_in_all_cases": "ADP-Glo luminescence",
  "key": {"CLK1": {"target": "CLK1 (Homo sapiens (Human), UniProt P49759)", "sequence (P49759 whole entry)": "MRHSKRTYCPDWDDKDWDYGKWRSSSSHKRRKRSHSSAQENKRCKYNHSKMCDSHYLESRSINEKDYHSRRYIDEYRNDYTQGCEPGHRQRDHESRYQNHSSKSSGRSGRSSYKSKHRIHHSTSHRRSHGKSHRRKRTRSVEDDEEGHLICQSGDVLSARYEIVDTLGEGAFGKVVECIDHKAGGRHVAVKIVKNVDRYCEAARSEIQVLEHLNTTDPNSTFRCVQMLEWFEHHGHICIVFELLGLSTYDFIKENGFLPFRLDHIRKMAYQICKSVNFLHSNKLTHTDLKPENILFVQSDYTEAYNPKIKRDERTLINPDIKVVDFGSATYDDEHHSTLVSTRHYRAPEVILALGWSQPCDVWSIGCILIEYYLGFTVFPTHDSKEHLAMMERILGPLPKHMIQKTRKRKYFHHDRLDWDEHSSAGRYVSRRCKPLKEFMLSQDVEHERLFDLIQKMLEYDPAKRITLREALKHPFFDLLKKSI", "assay": "Inhibition of CLK1 kinase activity evaluated at Nanosyn (ADP-Glo)", "procedure": "(§1) Inhibition of CLK, CLK2, CLK3 and CLK4 Kinase Activity Evaluated at Nanosyn\n(§2) Kinase protein and substrate were pre-diluted in the HEPES assay buffer (100 mM HEPES, pH 7.5, 0.01% Triton X-100, 0.1% BSA, 5 mM MgCl2, […] DTT, 10 Sodium Orthovanadate, […] Beta-Glycerophosphate) dispensed into 384 well plate (5 μL per well). Control samples (0%-inhibition in the absence of inhibitor, DMSO only) and 100%-inhibition (in the absence of enzyme) were assembled in replicates of six and were used to calculate %-inhibition in the presence of compounds. Test compounds were added to the protein samples by acoustic dispensing (Labcyte Echo550). Concentration of DMSO was equalized to 1% in all samples. Reactions were initiated by addition of ATP by acoustic dispensing (Labcyte Echo550) and incubated according to assay specific incubation time. After incubation. 5 μL of Promega ADP-Glo reagent was added and incubated for 40 minutes. After 40 minutes, 10 uL of Promega kinase detection reagent was added. After 10 min of incubation with Kinase detection reagent, the luminescence was read on microplate reader (Biotek Synergy)."}, "CLK2": {"target": "CLK2 (Homo sapiens (Human), UniProt P49760)", "sequence (P49760 whole entry)": "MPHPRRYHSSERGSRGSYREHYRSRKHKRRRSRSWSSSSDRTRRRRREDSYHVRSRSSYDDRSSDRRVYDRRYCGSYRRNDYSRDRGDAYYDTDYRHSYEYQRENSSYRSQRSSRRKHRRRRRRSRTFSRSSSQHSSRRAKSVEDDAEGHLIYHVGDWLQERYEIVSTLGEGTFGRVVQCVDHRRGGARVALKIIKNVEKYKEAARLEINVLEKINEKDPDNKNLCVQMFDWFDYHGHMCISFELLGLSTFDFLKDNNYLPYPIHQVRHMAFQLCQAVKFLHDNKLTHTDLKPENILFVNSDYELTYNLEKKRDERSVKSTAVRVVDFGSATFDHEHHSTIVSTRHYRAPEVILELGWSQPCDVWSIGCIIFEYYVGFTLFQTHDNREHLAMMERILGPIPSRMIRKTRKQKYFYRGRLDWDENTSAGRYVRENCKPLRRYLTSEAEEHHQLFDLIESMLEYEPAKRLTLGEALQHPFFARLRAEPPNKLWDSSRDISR", "assay": "Inhibition of CLK2 kinase activity evaluated at Nanosyn (ADP-Glo)", "procedure": "as §1, §2"}, "CLK3": {"target": "CLK3 (Homo sapiens (Human), UniProt P49761)", "sequence (P49761 whole entry)": "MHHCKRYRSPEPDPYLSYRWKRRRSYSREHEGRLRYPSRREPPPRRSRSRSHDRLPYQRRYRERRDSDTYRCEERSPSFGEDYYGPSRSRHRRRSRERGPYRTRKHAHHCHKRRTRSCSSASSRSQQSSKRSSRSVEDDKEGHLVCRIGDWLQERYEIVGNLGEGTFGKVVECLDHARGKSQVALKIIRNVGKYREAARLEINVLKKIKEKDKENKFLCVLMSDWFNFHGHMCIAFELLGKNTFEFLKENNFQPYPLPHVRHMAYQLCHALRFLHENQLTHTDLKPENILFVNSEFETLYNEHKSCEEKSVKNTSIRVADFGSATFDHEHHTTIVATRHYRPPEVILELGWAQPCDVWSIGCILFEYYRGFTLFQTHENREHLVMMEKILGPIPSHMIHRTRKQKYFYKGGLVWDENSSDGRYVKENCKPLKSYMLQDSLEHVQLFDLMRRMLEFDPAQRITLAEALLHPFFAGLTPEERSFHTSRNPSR", "assay": "Inhibition of CLK3 kinase activity evaluated at Nanosyn (ADP-Glo)", "procedure": "as §1, §2"}, "CLK4": {"target": "CLK4 (Homo sapiens (Human), UniProt Q9HAZ1)", "sequence (Q9HAZ1 whole entry)": "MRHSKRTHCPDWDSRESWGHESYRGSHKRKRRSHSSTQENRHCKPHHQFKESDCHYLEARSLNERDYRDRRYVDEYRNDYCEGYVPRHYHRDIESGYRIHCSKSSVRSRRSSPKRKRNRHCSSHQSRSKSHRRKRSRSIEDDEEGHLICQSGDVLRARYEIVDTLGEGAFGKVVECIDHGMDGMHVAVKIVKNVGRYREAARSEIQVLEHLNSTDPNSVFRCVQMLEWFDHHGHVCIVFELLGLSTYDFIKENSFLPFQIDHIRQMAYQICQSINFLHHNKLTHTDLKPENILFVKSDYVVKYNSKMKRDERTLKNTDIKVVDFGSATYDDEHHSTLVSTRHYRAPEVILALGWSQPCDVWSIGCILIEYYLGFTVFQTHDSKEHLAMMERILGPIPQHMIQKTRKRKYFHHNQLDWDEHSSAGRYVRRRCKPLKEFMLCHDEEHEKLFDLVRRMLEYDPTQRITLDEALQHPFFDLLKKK", "assay": "Inhibition of CLK4 kinase activity evaluated at Nanosyn (ADP-Glo)", "procedure": "as §1, §2"}},
  "data": [
    {"smiles": "Cc1nn(C)c2c1/C=C/c1n[nH]c3ccc(cc13)-c1cnn(C)c1O[C@@H](C)CN(C)[C@H]2C", "note": "(single isomer, unassigned) [Example 145]", "values": [
      {"measurement": "IC50", "setting": "CLK1", "result": 0.21, "unit": "nM"},
      {"measurement": "IC50", "setting": "CLK2", "result": 0.04, "unit": "nM"},
      {"measurement": "IC50", "setting": "CLK3", "result": 99.6, "unit": "nM"},
      {"measurement": "IC50", "setting": "CLK4", "result": 0.52, "unit": "nM"}
    ]},
    {"smiles": "CCN1Cc2c(c(OC(C)C)nn2C[C@H](C)O)/C=C/c2n[nH]c3cc(F)c(cc23)-c2cnn(C)c2O[C@@H](C)C1", "note": "[Example 296, (2S)-1-{(10S,17E)-12-ethyl-19-fluoro-8,10-dimethyl-16-[(propan-2-yl)oxy]-2,8,10,11,12,13-hexahydro-14H-3,5-ethenotripyrazolo[3,4-f:3′,4′-j:4″,3″-n][1,4]oxazacyclopentadecin-14-yl}propan-2-ol]", "values": [
      {"measurement": "IC50", "setting": "CLK1", "result": 1.2, "unit": "nM"},
      {"measurement": "IC50", "setting": "CLK2", "result": 1.15, "unit": "nM"},
      {"measurement": "IC50", "setting": "CLK3", "result": 33.4, "unit": "nM"},
      {"measurement": "IC50", "setting": "CLK4", "result": 1.57, "unit": "nM"}
    ]},
    {"smiles": "Cc1nn(C)c2c1/C=C/c1n[nH]c3ccc(cc13)-c1cnn(C)c1COCCO2", "note": "[Ex. 6, (17E)-8,14,16-trimethyl-2,8,9,11,12,14-hexahydro-3,5-etheno[1,4]dioxacyclopentadecino[11,10-c:15,14-c′:6,7-c″ ]tripyrazole]", "values": [
      {"measurement": "IC50", "setting": "CLK1", "result": 0.34, "unit": "nM"},
      {"measurement": "IC50", "setting": "CLK2", "result": 0.23, "unit": "nM"},
      {"measurement": "IC50", "setting": "CLK3", "result": 178, "unit": "nM"},
      {"measurement": "IC50", "setting": "CLK4", "result": 0.52, "unit": "nM"}
    ]},
    {"smiles": "CC(C)Oc1nn(CCO)c2c1/C=C/c1n[nH]c3ccc(cc13)-c1cnn(C)c1O[C@@H](C)CN(C)[C@H]2C", "note": "[Example 224, 2-{(10S,13S,17E)-8,10,12,13-tetramethyl-16-[(propan-2-yl)oxy]-2,8,10,11,12,13-hexahydro-14H-3,5-ethenotripyrazolo[3,4-f:3′,4′-j:4″,3″-n][1,4]oxazacyclopentadecin-14-yl}ethan-1-ol]", "values": [
      {"measurement": "IC50", "setting": "CLK1", "result": 0.69, "unit": "nM"},
      {"measurement": "IC50", "setting": "CLK2", "result": 1.16, "unit": "nM"},
      {"measurement": "IC50", "setting": "CLK3", "result": 253, "unit": "nM"},
      {"measurement": "IC50", "setting": "CLK4", "result": 1.46, "unit": "nM"}
    ]},
    {"smiles": "CCOc1c2c(nn1C)CN(C(C)=O)CCOc1c(cnn1C)-c1ccc3[nH]nc(c3c1)/C=C/2", "note": "[Example 294, 1-[(17E)-16-ethoxy-8,15-dimethyl-2,8,10,11,13,15-hexahydro-12H-3,5-ethenotripyrazolo[3,4-f:3′,4′-j:4″,3″- n][1,4]oxazacyclopentadecin-12-yl]ethan-1-one]", "values": [
      {"measurement": "IC50", "setting": "CLK1", "result": 1.27, "unit": "nM"},
      {"measurement": "IC50", "setting": "CLK2", "result": 3.25, "unit": "nM"},
      {"measurement": "IC50", "setting": "CLK3", "result": 1000, "unit": "nM"},
      {"measurement": "IC50", "setting": "CLK4", "result": 1.37, "unit": "nM"}
    ]},
    {"smiles": "CC(=O)N1CCOc2c(cnn2C)-c2ccc3[nH]nc(c3c2)/C=C/c2c(nn(C)c2C)C1", "note": "[Example 52, 1-[(17E)-8,15,16-trimethyl-2,8,10,11,13,15-hexahydro-12H-3,5-ethenotripyrazolo[3,4-f:3′,4′-j:4″,3″- n][1,4]oxazacyclopentadecin-12-yl]ethan-1-one]", "values": [
      {"measurement": "IC50", "setting": "CLK1", "result": 0.24, "unit": "nM"},
      {"measurement": "IC50", "setting": "CLK2", "result": 0.19, "unit": "nM"},
      {"measurement": "IC50", "setting": "CLK3", "result": 148, "unit": "nM"},
      {"measurement": "IC50", "setting": "CLK4", "result": 0.56, "unit": "nM"}
    ]},
    {"smiles": "Cc1snc2c1/C=C/c1n[nH]c3ccc(cc13)-c1cnn(C)c1O[C@@H](C)CN(C)C2", "note": "[Example 158, (10S,17E)-8,10,12,16-tetramethyl-2,8,10,11,12,13-hexahydro-3,5-ethenodipyrazolo[3,4-j:4′,3′-n][1,2]thiazolo[3,4-f][1,4]oxazacyclopentadecine]", "values": [
      {"measurement": "IC50", "setting": "CLK1", "result": 0.14, "unit": "nM"},
      {"measurement": "IC50", "setting": "CLK2", "result": 0.4, "unit": "nM"},
      {"measurement": "IC50", "setting": "CLK3", "result": 664, "unit": "nM"},
      {"measurement": "IC50", "setting": "CLK4", "result": 0.31, "unit": "nM"}
    ]},
    {"smiles": "C[C@H]1CN(C)Cc2c(c(C#N)nn2CCO)/C=C/c2n[nH]c3ccc(cc23)-c2cnn(C)c2O1", "note": "[Example 208, (10S,17E)-14-(2-hydroxyethyl)-8,10,12-trimethyl-2,10,11,12,13,14-hexahydro-8H-3,5-ethenotripyrazolo[3,4-f:3′,4′-j:4″,3″-n][1,4]oxazacyclopentadecine-16-carbonitrile]", "values": [
      {"measurement": "IC50", "setting": "CLK1", "result": 0.59, "unit": "nM"},
      {"measurement": "IC50", "setting": "CLK2", "result": 0.13, "unit": "nM"},
      {"measurement": "IC50", "setting": "CLK3", "result": 220, "unit": "nM"},
      {"measurement": "IC50", "setting": "CLK4", "result": 1.53, "unit": "nM"}
    ]},
    {"smiles": "CCOc1nn(CCO)c2c1/C=C/c1n[nH]c3ccc(cc13)-c1c(C#N)nn(C)c1O[C@@H](C)CN(CC)C2", "note": "[Example 290, (10S,17E)-16-ethoxy-12-ethyl-14-(2-hydroxyethyl)-8,10-dimethyl-2,10,11,12,13,14-hexahydro-8H-3,5-ethenotripyrazolo[3,4-f:3′,4′-j:4″,3″-n][1,4]oxazacyclopentadecine-6-carbonitrile]", "values": [
      {"measurement": "IC50", "setting": "CLK1", "result": 69.4, "unit": "nM"},
      {"measurement": "IC50", "setting": "CLK2", "result": 102, "unit": "nM"},
      {"measurement": "IC50", "setting": "CLK3", "result": 1000, "unit": "nM"},
      {"measurement": "IC50", "setting": "CLK4", "result": 38.1, "unit": "nM"}
    ]}
  ]
}
